The text below walks through data of patent publication US10875832B2, “Substituted pyrimidines for treating bacterial infections” (FORGE THERAPEUTICS, INC., priority 2015, dated 2020).

In one assay the test system is E. coli ATCC 25922. The experiment in a line: MIC by broth microdilution, E. coli ATCC 25922, no FBS. It counts as cell-based. The settings on record: Escherichia coli, ATCC25922, 35° C., 18-24 h. Here is the method:
(§1) Minimal inhibitory concentrations (MIC) were determined by the broth microdilution method in accordance with the Clinical and Laboratory Standards Institute (CLSI) guidelines. In brief, organism suspensions were adjusted to a 0.5 McFarland standard to yield a final inoculum between 3×10^5 and 7×10^5 colony-forming units (CFU)/mL. Drug dilutions and inocula were made in sterile, cation adjusted Mueller-Hinton Broth (Beckton Dickinson). An inoculum volume of 100 μL was added to wells containing 100 μL of broth with 2-fold serial dilutions of drug. All inoculated microdilution trays were incubated in ambient air at 35° C. for 18-24 h. […] Performance of the assay was monitored by the use of laboratory quality-control strains and levofloxacin, a compound with a defined MIC spectrum, in accordance with CLSI guidelines.

The test system of another assay is E. coli BW25113. Put plainly: MIC by broth microdilution, E. coli BW25113, no FBS. Conditions: Escherichia coli, 35° C., 18-24 h. Type of assay: cell-based. Here is the method: as §1
A further assay deals with E. coli imp mutant. Put plainly: MIC by broth microdilution, E. coli imp mutant. Type of assay: cell-based. The settings on record: Escherichia coli, read-out: MIC E. coli imp mutant. Here is the method:
as §1

Assay [1] deals with E. coli delta to IC mutant. Put plainly: MIC by broth microdilution, E. coli delta tolC mutant. Type of assay: cell-based. The settings on record: Escherichia coli, read-out: MIC E. coli delta to IC mutant. Here is the method: as §1
Another assay has as its system S. aureus ATCC 29213. Put plainly: MIC by broth microdilution, S. aureus ATCC 29213. It counts as cell-based. The settings on record: Staphylococcus aureus, ATCC29213; 35° C., 18-24 h. Here is the method:
as §1

Another assay concerns P. aeruginosa 209. Put plainly: MIC by broth microdilution, P. aeruginosa 209. It counts as cell-based. The settings on record: Pseudomonas aeruginosa, 35° C., 18-24 h. Here is the method:
as §1

Assay [2] has as its system P. aeruginosa 210 delta mexAB-OprM. The experiment in a line: MIC by broth microdilution, P. aeruginosa 210 delta mexAB-OprM. Type of assay: cell-based. The settings on record: Pseudomonas aeruginosa, read-out: MIC P. aeruginosa 210 delta mexAB-OprM. Here is the method:
as §1

Assay [3] addresses Klebsiella pneumoniae LpxC (Klebsiella pneumoniae subsp. pneumoniae (strain ATCC 700721 / MGH 78578), UniProt A6T4N9). The experiment in a line: Inhibition Assay against Klebsiella pneumoniae LpxC (LC-MS/MS). It counts as biochemical. The settings on record: 0.2 nM Kpn LpxC, 22° C., 60 minutes. Here is the method: LpxC inhibition assays were performed using liquid chromatography with tandem mass spectrometry. Assays were performed, in duplicate, in opaque, 96-well microplates in a total assay volume of 50 μL. The incubation mixture contained: LpxC (0.2 nM Kpn), 0.8 μM UDP-3-O—[(R)-3-hydroxymyristoyl]-N-acetyl-glucosamine, 40 mM Bis-Tris/HCl buffer (pH 5.9), 5 mM sodium phosphate buffer (NaH2PO4/Na2HPO4, pH 7.0), 1 mM DTT, 0.1% (w/v) fatty-acid free BSA, 10% DMSO (v/v, with or without compound). The reactions were incubated at 22° C. for 60 minutes (with mild shaking), then terminated by the addition of 25 μL 0.25 N HCl. Samples were analyzed using a LC-MS system to measure native LpxC substrate and reaction product. IC50 analysis was done using GeneData Screener and a four parameter variable slope normalized to controls. Test compounds were prepared as 8-point dose-response curves (factor dilution 2) in triplicate, starting at 1 μM final concentration. Each assay plate included 6 wells used for the Z′ factor calculation, 3 as a positive control for the assay and 3 as a negative control. The robustness was calculated as the median Z′ factor for 5 plates.

Values after ≈ are worked out from the molar mass of the structure shown.

As for `O=c1[nH]cnc(CNc2ccc(C#Cc3ccc(CN4CCOCC4)cc3)cc2)c1O` [Compound 98], the MIC is 1 to 8 µg/mL (≈ 2.4 to 19.2 µM) against E. coli ATCC 25922; under 1 µg/mL in the assay on E. coli BW25113; 1 to 8 µg/mL (≈ 2.4 to 19.2 µM) in the assay with E. coli imp mutant; under 1 µg/mL in assay [1]; over 32 µg/mL against S. aureus ATCC 29213; over 32 µg/mL against P. aeruginosa 209. In assay [2], the MIC was over 32 µg/mL. Besides, the IC50 in assay [3] fell in the range of 10 to 100 nM.

Turning to `O=C(c1ccc(C#CC#Cc2ccc(NCc3nc[nH]c(=O)c3O)cc2)cc1)N1CCOCC1` [Compound 97], the MIC is 1 to 8 µg/mL (≈ 2.2 to 17.6 µM) with E. coli ATCC 25922; under 1 µg/mL with E. coli BW25113; under 1 µg/mL in the assay on E. coli imp mutant; under 1 µg/mL in assay [1]; over 32 µg/mL in the assay with S. aureus ATCC 29213; over 32 µg/mL against P. aeruginosa 209. In addition, in assay [2], the MIC is over 32 µg/mL. This molecule also had an IC50 in assay [3] of 10 to 100 nM.

Regarding `O=c1[nH]cnc(CNc2ccc(C#Cc3ccc(-c4nnn[nH]4)cc3)cc2)c1O` [Compound 103], the MIC was over 32 µg/mL with E. coli ATCC 25922; over 32 µg/mL against E. coli BW25113; over 32 µg/mL in the assay on E. coli imp mutant; 1 to 8 µg/mL (≈ 2.59 to 20.8 µM) in assay [1]; over 32 µg/mL with S. aureus ATCC 29213; over 32 µg/mL against P. aeruginosa 209. Also, the MIC in assay [2] was over 32 µg/mL.

`COC(=O)c1ccc(C#CC#Cc2ccc(NCc3nc[nH]c(=O)c3O)cc2)cc1` [Compound 71, Methyl 4-((4-(((5-hydroxy-6-oxo-1,6-dihydropyrimidin-4-yl)methyl)amino)phenyl)buta-1,3-diyn-1-yl)benzoate]: the MIC (against E. coli ATCC 25922; in the assay on E. coli BW25113; in the assay with E. coli imp mutant; in assay [1]; with S. aureus ATCC 29213; against P. aeruginosa 209) was over 32 µg/mL in each case. Also, in assay [2], the MIC is over 32 µg/mL.

On to `CS(=O)(=O)Cc1nc(COc2ccc(C#CC#Cc3ccccc3)cc2)[nH]c(=O)c1O` [Compound 70, 5-hydroxy-6-((methylsulfonyl)methyl)-2-((4-(phenylbuta-1,3-diyn-1-yl)phenoxy)methyl)pyrimidin-4(3H)-one], for which the MIC against E. coli ATCC 25922 was over 32 µg/mL; in the assay with E. coli BW25113, over 32 µg/mL; with E. coli imp mutant it was 1 to 8 µg/mL (≈ 2.3 to 18.4 µM); in assay [1] it was 8 to 32 µg/mL (≈ 18.4 to 73.7 µM); against S. aureus ATCC 29213 it was 8 to 32 µg/mL (≈ 18.4 to 73.7 µM); with P. aeruginosa 209, over 32 µg/mL. The MIC in assay [2] is over 32 µg/mL.

As for `O=C(O)c1ccc(C#CC#Cc2ccc(NCc3nc[nH]c(=O)c3O)cc2)cc1` [Compound 87], the MIC in the assay with E. coli ATCC 25922 is 1 to 8 µg/mL (≈ 2.59 to 20.8 µM); in the assay on E. coli BW25113 it was 1 to 8 µg/mL (≈ 2.59 to 20.8 µM); in the assay on E. coli imp mutant it was 1 to 8 µg/mL (≈ 2.59 to 20.8 µM); in assay [1], under 1 µg/mL; against S. aureus ATCC 29213, over 32 µg/mL; with P. aeruginosa 209, over 32 µg/mL. The MIC in assay [2] was over 32 µg/mL.

`CCOC(=O)c1nc(C)n(CC(O)c2ccc(C#Cc3ccccc3)cc2)c(=O)c1O` (stereo not drawn) [Compound 89]: the MIC in the assay on E. coli ATCC 25922 is over 32 µg/mL; in the assay with E. coli BW25113 it was over 32 µg/mL; with E. coli imp mutant, 8 to 32 µg/mL (≈ 19.1 to 76.5 µM); in assay [1] it was over 32 µg/mL; against S. aureus ATCC 29213 it was 8 to 32 µg/mL (≈ 19.1 to 76.5 µM); with P. aeruginosa 209, over 32 µg/mL. In addition, the MIC in assay [2] was over 32 µg/mL.

Consider `Cc1nc(C(=O)O)c(O)c(=O)n1CC(O)c1ccc(C#Cc2ccccc2)cc1` (stereo not drawn) [Compound 90], for which the MIC with E. coli ATCC 25922 is over 32 µg/mL; in the assay with E. coli BW25113, over 32 µg/mL; with E. coli imp mutant it was 1 to 8 µg/mL (≈ 2.56 to 20.5 µM); in assay [1], 8 to 32 µg/mL (≈ 20.5 to 82 µM); in the assay on S. aureus ATCC 29213, over 32 µg/mL; in the assay with P. aeruginosa 209, over 32 µg/mL. In addition, in assay [2], the MIC was over 32 µg/mL.

Take `O=c1[nH]cnc(CNc2ccc(-c3ccccc3)cc2)c1O` [Compound 96]: the MIC (in the assay on E. coli ATCC 25922; in the assay on E. coli BW25113; with E. coli imp mutant; in assay [1]; against S. aureus ATCC 29213; in the assay with P. aeruginosa 209) was over 32 µg/mL each time. Further, the MIC in assay [2] was over 32 µg/mL.

Regarding `O=C(NCCN1CCCC1)c1ccc(C#CC#Cc2ccc(NCc3nc[nH]c(=O)c3O)cc2)cc1` [Compound 75], the MIC with E. coli ATCC 25922 was 8 to 32 µg/mL (≈ 16.6 to 66.5 µM); with E. coli BW25113, 1 to 8 µg/mL (≈ 2.08 to 16.6 µM); in the assay with E. coli imp mutant, 1 to 8 µg/mL (≈ 2.08 to 16.6 µM); in assay [1], under 1 µg/mL; against S. aureus ATCC 29213 it was over 32 µg/mL; with P. aeruginosa 209 it was over 32 µg/mL. The MIC in assay [2] was over 32 µg/mL.

Take `O=C(O)c1ccc(C#Cc2ccc(NCc3nc[nH]c(=O)c3O)cc2)cc1` [Compound 101]: the MIC was over 32 µg/mL with E. coli ATCC 25922; over 32 µg/mL with E. coli BW25113; over 32 µg/mL with E. coli imp mutant; 1 to 8 µg/mL (≈ 2.77 to 22.1 µM) in assay [1]; over 32 µg/mL with S. aureus ATCC 29213; over 32 µg/mL in the assay with P. aeruginosa 209. The MIC in assay [2] was over 32 µg/mL.

`Cc1nc(C(=O)O)c(O)c(=O)n1CC(O)c1ccc(C#Cc2ccc(CN3CCOCC3)cc2)cc1` (stereo not drawn) [Compound 93]: the MIC (against E. coli ATCC 25922; against E. coli BW25113; in the assay on E. coli imp mutant; in assay [1]; against S. aureus ATCC 29213; against P. aeruginosa 209) was over 32 µg/mL in each case. In assay [2], the MIC was over 32 µg/mL.

For the molecule `O=C(c1ccc(C#CC#Cc2ccc(NCc3nc[nH]c(=O)c3O)cc2)cc1)N1CCC[C@H]1CO` [Compound 99], the MIC was over 32 µg/mL against E. coli ATCC 25922; 1 to 8 µg/mL (≈ 2.13 to 17.1 µM) with E. coli BW25113; under 1 µg/mL in the assay with E. coli imp mutant; under 1 µg/mL in assay [1]; over 32 µg/mL against S. aureus ATCC 29213; over 32 µg/mL against P. aeruginosa 209. Besides, the MIC in assay [2] was over 32 µg/mL.
